Data from US11730731B2 (INVENTAGE LAB INC., priority 2021, dated 2023).

Key:
[1] = tested on: murine collagen-induced arthritis (CIA); experiment: Imaging evaluation of arthritis using micro-CT, CIA mice; format: in vivo; details: Example 3, CIA mouse; MTX 1 mg/kg ip twice/week; Xeljanz 10 mg/kg oral once/day; MTX 1 mg/kg + Q-DDS 3 mg/mouse
Protocol: (§1) The radiographs were 3D rendered using the Quantum FX μCT imaging system (Perkin Elmer, MA), and then the radiological score was evaluated, and the bone volume ratio (Bone volume [BV]/Tissue volume [Tissue volume; TV]) and bone surface density (Bone surface area (BS)/Bone volume (BV)) were also measured. Two or more investigators performed blind evaluation for joint destruction, and the indicators in Table 17 below were used as the scoring criteria. The average value of the researchers' blind evaluation data was used as the score, and the average score of the paw tissue was calculated as the score of each group.
as §1, with “[BV]/Tissue” for “[BV]/Tissue volume [Tissue”, “TV)” for “TV])”, “(BV)), and cortical bone thickness” for “(BV))”, “researchers” for “investigators”, “above” for “below”

[2] = Safety assessment in vivo by body weight, CIA mice; details: Example 3, CIA mouse, MTX 1 mg/kg ip twice/week, Xeljanz 10 mg/kg oral once/day, MTX 1 mg/kg + Q-DDS 3 mg/mouse; for D23 body weight Mean: day 23 (baseline); for D41 body weight Mean: day 41; for Change of body weight (%, D23 body weight 100%) Mean: day 41 vs day 23
Protocol: The safety in vivo of the test substance was evaluated by measuring the body weight of mouse in each administration group of Example 4.1.
For the safety evaluation of the test substance, the body weight of mouse was measured daily from before the start of administration (The 23th day) to just before the end of administration (The 41th day), and the body weight (%) of the mouse for each administration group over the time (day) and the body weight on the 41th day were shown in FIG. 16A, FIG. 16B and Table 27.

[3] = tested on: inflammatory mediators in arthritis tissue (IL-1β, IL-6, IL-17, TNF-α, MCP-1, MIP-2, IL-2); experiment: Multiplex protein immunoassay (Luminex multi-analyte-ELISA) of inflammatory mediators in arthritic tissue; format: in vivo, mouse; details: for ELISA values in Arthritis Paw, IL-1β, Mean / ELISA values in Arthritis Paw, IL-6, Mean / ELISA values in Arthritis Paw, IL-17, Mean / ELISA values in Arthritis Paw, TNF-α, Mean: CIA mice, Example 3, positive control groups (MTX, Xeljanz); for MCP-1, ELISA values in Arthritis Paw (pg/mL) Mean / MIP-2, ELISA values in Arthritis Paw (pg/mL) Mean: MTX 1 mg/kg ip twice/week, MTX 1 mg/kg + Q-DDS 3 mg/mouse
From the text: In order to evaluate the inflammatory activity and confirm the mode of action of the test substance through quantitative analysis of inflammatory substances in mouse arthritis tissue and blood, inflammatory mediators were investigated at the protein level. In order to overcome the limitation of the amount of sample that can be extracted for protein analysis, a multi-analyte-ELISA (multi-analyte-ELISA) method based on Luminex technology was used to analyze the largest amount of protein in a small sample.
(§2) The mouse joint tissue obtained after treatment with the test substance in the method of Example 3.1 was pulverized through ceramic beads, and all proteins were extracted using a lysis buffer (Cat. 1713040111, Bio-Rad). Using Pro-reagent kit V, the same amount of protein (2.7 mg/mL) for each administration group was diluted ¼ and reacted with the target-binding beads in a culture dish for 30 minutes. After washing with a wash buffer, it was reacted with the target-measurement antibody for 30 minutes, and after washing with a wash buffer again, it was reacted with streptavidin-PE for 10 minutes. Thereafter, the target protein is quantitatively measured for each administration group using the Bio-Plex® 200 system (Bio-Rad). The target-binding beads were composed of a set that can be combined as needed from Bio-Plex Mouse cytokine 4-plex (IL-1β, IL-6, IL-17A, TNF-α; Cat. 171G5002M), Bio-Plex Pro Mouse Cytokine 1-plex (MCP1; Cat. 171G5019M), Bio-Plex Pro Mouse Cytokine II 1-plex (MIP2; Cat 171G6006M), and Bio-Plex Pro Mouse Cytokine 1-plea (IL-6; Cat. 171 G5007M) (all products are from Bio Rad) and were used for measurement.
For the measurement result, paw tissue weight of the mouse was corrected for the quantified target protein. For each target joint, the hind paw was mainly used, and in order to overcome the limitation of the amount of protein extracted from the joint tissue, up to 4 inflammatory mediators were measured in one well.
On the other hand, as the target protein to be measured, a representative inflammation-promoting cytokine group A (IL-1β, IL-6, IL-17, and TNF-α) among inflammatory mediators, and a chemokine group B (MCP-1 and MIP-2) among inflammatory mediators was selected to carry out the experiment. The measurement results were summarized in FIGS. 12A and 12B, and Tables 19 and 20 below. […]
as §2, with “4.1. above” for “3.1”, “171 G5002M),” for “171G5002M),”, “Cat. 171 G6006M),” for “Cat 171G6006M),”, “1-plex” for “1-plea”, “171G5007M)” for “171 G5007M)”
On the other hand, as the target protein to be measured, a representative inflammation-promoting cytokine group A (IL-1β, IL-6, IL-17, and TNF-α) among inflammatory mediators, and IL-2 and a chemokine group B (IL-2, MCP-1 and MIP-2) among inflammatory mediators were selected to carry out the experiment. The measurement results were summarized in FIGS. 18A and 18B, and Tables 29 and 30 below.

IL-6 = experiment: Multiplex protein immunoassay of IL-6 in serum of CIA mice; format: in vivo, mouse; details: Example 3, positive control groups (MTX, Xeljanz)
Protocol: For the measurement result, paw tissue weight of the mouse was corrected for the quantified amount of IL-6 protein. For each target joint, the hind paw was mainly used, and in order to overcome the limitation of the amount of protein extracted from the joint tissue, up to 4 inflammatory mediators were measured in one well. […]

[4] = Example 3, CIA mouse joint tissue, Xeljanz 10 mg/kg oral once/day

| Structure (SMILES) | Bone surface area/bone volume (mm^−1) Mean (micro-CT) [1] [mm^−1] | Bone volume/tissue volume (%) Mean (micro-CT) [1] [%] | Radiological score Mean (joint destruction, micro-CT) [1] | D23 body weight Mean [2] [g] | D41 body weight Mean [2] [g] | Change of body weight (%, D23 body weight 100%) Mean [2] [%] | ELISA values in Arthritis Paw, IL-1β, Mean [3] [pg/mL] | ELISA values in Arthritis Paw, IL-6, Mean [3] [pg/mL] | ELISA values in Arthritis Paw, IL-17, Mean [3] [pg/mL] | ELISA values in Arthritis Paw, TNF-α, Mean [3] [pg/mL] | MCP-1, ELISA values in Arthritis Paw (pg/mL) Mean [3, 4] [pg/mL] | MIP-2, ELISA values in Arthritis Paw (pg/mL) Mean [3, 4] [pg/mL] | IL-17 protein in arthritis tissue [3, 4] [pg/mL] | TNF-α protein in arthritis tissue [3, 4] [pg/mL] | ELISA values in Serum, IL-6, Mean (IL-6) [pg/mL] |
| --- | --- | --- | --- | --- | --- | --- | --- | --- | --- | --- | --- | --- | --- | --- | --- |
| C[C@@H]1CCN(C(=O)CC#N)C[C@@H]1N(C)c1ncnc2[nH]ccc12 [Xeljanz ®, Tofacitinib] | 6.52 | 25.27 | 2.08 | 21.7 | 21.6 | 99.6 | 12.68 | 88.6 | 4.57 | 24.52 | 207.9 | 126.8 | 4.57 | 24.52 | 94.5 |
| CN(Cc1cnc2nc(N)nc(N)c2n1)c1ccc(C(=O)N[C@@H](CCC(=O)O)C(=O)O)cc1 [Methotrexate, methotrexate] | 6.12 | 31.25 | 1.67 | 22.7 | 23.8 | 104.7 | 1.05 | 1.8 | 2.269 | 6.54 | 76.1 | 4.4 |  |  | 39.6 |
